Tests used:
Shay ulcers = assay: Gastric ulcers provoked by tying of the pylorus (Shay ulcers); assay type: in vivo; conditions: intraduodenal; rat, 50mg/kg/i.d.; read-out: Percentage reduction of shay ulcers
Protocol: The derivatives of formula I, administered by oral means, reduce the extent of gastric ulcers provoked in a rat by tying of the pylorus (Shay ulcers)
Table IV indicated, by way of example, the results obtained by the administration of 50mg/kg/i.d. of different derivatives of formula I.

[1] = system: isolated heart of guinea-pig; assay: Augmentation of flow of coronary vessels of isolated heart (vasodilatatory); conditions: Cavia porcellus; 1 μg/ml; read-out: Percentage augmentation of flow of isolated heart of guinea-pig
Protocol: The derivatives of formula I are capable of augmenting the flow of the coronary vessels of this isolated heart of a guinea - pig, when said derivatives are added in the perfusion liquid of said organ.
The percentage augmentation of the flow of the isolated heart of the guinea - pig by adding different derivatives of formula I to the perfusion liquid are given by way of example in the following Table V.

[2] = system: bronchoconstriction provoked by acetylcholine; assay: Bronchoconstriction provoked by intravenous acetylcholine, Konzett method; assay type: in vivo; conditions: guinea-pig, intraperitoneal injection of 100mg/kg
Protocol: Injected by intraduodenal means, the derivatives of formula I are capable of opposing the bronchoconstriction provoked in the guinea - pig by the intraveinous injection of acetylcholine and evaluated by the Konzett method.
By way of example, the following Table VI lists the percentage inhibition of the bronchoconstriction following the intraperitoneal injection of 100mg/kg of different derivatives of formula I.

[3] = system: local oedema caused by sub-plantar injection of carraghenine; assay: Sub-plantar oedema caused by carraghenine (antiinflammatory); assay type: in vivo, rat; conditions: rat, 100 mg/kg/PO; read-out: Percentage reduction of subplantar oedema
Source text: These properties are shown by a diminution of the local oedema caused by the sub-plantar injection of a phlogogenic agent, such as carraghenine, in the rat following the oral administration of derivatives of formula I.

[4] = Lethal doses / percentage mortality; assay type: in vivo; conditions: in vivo, 2000 mg/kg; mouse, 2 000 mg/kg/PO
Source text: As a result of a comparison between the pharmacologically active doses mentioned above, and the lethal doses listed in the following table XIV, the difference between the doses is sufficiently great to permit the utilisation of the derivatives of formula I in therapeutics.

volume of urine emitted = assay: Augmentation of urinary elimination (diuretic properties); assay type: in vivo; conditions: po; mouse, 25mg/kg/p.o., 6 hours; read-out: Percentage augmentation of urinary elimination
Protocol: The derivatives of formula I, administered by oral means to the mouse, simultaneously with a volume of 1ml of an isotonic solution of sodium chloride per 25g of the corporeal weight of the mouse, are capable of provoking an augmentation of the volume of urine emitted by reference to control animals, the volume being measured for 6 hours following administration.
The following Table VII indicates, by way of example the percentage augmentation of urinary elimination resulting from the administration of 25mg/kg/p.o. of different derivatives of formula I.

[5] = system: isolated heart of the guinea-pig; assay: Force of contractions on isolated heart (positive inotrope action); conditions: 1 μg/ml
Protocol: Additionally, the derivative of Code No. 730 712 added to the conserving medium in a concentration of 1 μg/ml, permit an augmentation of 140% in the force of contractions on the isolated heart of the guinea- pig.

[6] = system: number of explorations in the escape enclosure; assay: Number of explorations in the escape enclosure (sedative properties); assay type: in vivo, mouse; conditions: po; mouse, escape enclosure, 100mg/kg/p.o.; read-out: Percentage diminution of number of explorations

| Structure (SMILES) | inhibition in vivo at 50 mg/kg (Shay ulcers) [%] | activation at 1 µg/mL [1] [%] | Percentage inhibition of bronchoconstriction [2] [%] | inhibition in vivo at 100 mg/kg [3] [%] | mortality [4] [%] | change in vivo at 25 mg/kg (volume of urine emitted) [%] | positive inotrope action [5] | inhibition in vivo at 100 mg/kg [6] [%] |
| --- | --- | --- | --- | --- | --- | --- | --- | --- |
| Cc1cc(Nc2ccc(C(=O)N3CCCC3)cc2)nc(-c2ccc(Cl)cc2)n1 [72 255] | 35 | 45 | 50 | 60 | 0 | – | – | – |
| Cc1cc(Nc2ccc(C(=O)N3CCCCC3)cc2)nc(-c2ccc(Cl)cc2)n1 [72 276] | 40 | – | 50 | – | 0 | – | – | – |
| Cc1cc(Nc2ccc(C(N)=O)cc2)nc(-c2ccc(Cl)cc2)n1 [72 311] | 40 | – | 80 | 50 | 0 | – | – | – |
| Cc1cc(Nc2ccccc2C(N)=O)nc(-c2cccc(C(F)(F)F)c2)n1 [72 419] | – | – | – | 50 | 0 | 80 | positive inotrope action | – |
| COc1cc(-c2nc(C)cc(Nc3ccc(C(=O)N4CCN(c5ccccc5)CC4)cc3)n2)cc(OC)c1OC [72 450] | – | 85 | – | – | 0 | – | – | 35 |
| Cc1cc(Nc2ccccc2C(=O)OCC(O)CO)nc(-c2cccc(C(F)(F)F)c2)n1 (stereo not drawn) [72 502, 2 - (3' - trifluoromethylphenyl)-4-[ortho (β, γ-dihydroxy propoxycarbonyl)phenylamino] -6-methyl pyrimidine] | 35 | – | 50 | – | 0 | – | – | – |
| Cc1cc(Nc2ccccc2C(=O)OCC(O)CO)nc(-c2cccc(F)c2)n1 (stereo not drawn) [72 826] | – | – | 100 | 60 | 0 | 80 | – | – |
| Cc1cc(Nc2ccc(C(N)=O)cc2)nc(-c2ccc3c(c2)OCO3)n1 [730 025] | 35 | – | 50 | – | 0 | 140 | – | – |

Reference: patent US3978055A, “Arylamino pyrimidinic derivatives” (priority 1973, dated 1976)
